The values below come from US20110207944A1, “VITAMIN D3 LACTAM DERIVATIVE” (TEIJIN PHARMA LIMITED, priority 2008, published 2011).

Structures are written as SMILES.

The subject of this assay is HL-60 cells. The assay is described as follows: Vitamin D3 receptor-antagonist effect: inhibition of 1α,25-dihydroxyvitamin D3-induced differentiation of HL-60 (NBT reduction activity). The format is cell-based. The conditions noted are these: Homo sapiens, 96 h; NBT-positive HL-60 cells, co-treatment with 1α,25-dihydroxyvitamin D3 1×10^−8 M, 4 days. The text has this:
Vitamin D3 Receptor-Antagonist Effect in Terms of Cellular Differentiation-Inducing Activity of 1α,25-dihydroxyvitamin D3 in HL-60 as a Marker
(1) A HL-60 cell line purchased from a cell bank (Japanese Cancer Research Resource Bank, Cell number: JCRB0085) was used. The cells were frozen for storage as a frozen storage stock to prevent cell characteristic changes due to successive cultivations. The cells were defrosted prior to the initiation of the experiment, and those which started successive culturing were used in the experiment. Cells subcultured for one month to a half year were used for the experiment. The successive culturing was carried out by diluting the cells at a ratio of about 1/100 (1-2×10^4 cells/mL) in a fresh medium after the collection of cells from a cell suspension by centrifugation. RPMI-1640 supplemented with 10% fetal bovine serum was used as the culture medium.
(2) The subcultured cells by the procedure described in (1) were collected by centrifugation and re-suspended in the medium at 5×10^3 cells/mL, and the cells were plated into a 24-well culture dish at 1 mL/well. To this system, a solution of 1α,25-dihydroxyvitamin D3 at a concentration of 1×10^−5 M and the compounds of the present invention in a range of […] to 3×10^−3 M in ethanol, respectively, were added at 1 μL per well (the final concentration: 1×10^−8 M for 1α,25-dihydroxyvitamin D3, and 1×10^−9 M to 3×10^−6 M for the compounds of the present invention). Ethanol was added at 1 μL per well as a control. After the plate was incubated at 37° C. for 4 days in the presence of 5% CO2, the cells were separated and collected by centrifugation.
(3) The induction of nitroblue tetrazolium (hereinafter NBT) reduction activity was used as a marker for cell differentiation-inducing activity of HL-60 cells. The measurement of NBT reduction activity was carried out according to the following procedure. Specifically, cells collected by centrifugation were re-suspended in a fresh medium. Then 0.1% of NBT and 12-O-tetradecanoylphorbor-13-acetate at a final concentration of 100 ng/mL were added to the cell suspension and the mixture was incubated at 37° C. for 25 minutes. Then the cytospin smears were prepared and stained with Kernechtrot after air-drying. The ratio of positive cells expressing NBT reduction activity was determined under optical microscopy. Percentage ratios of the ratio of NBT-positive cells in a simultaneous treatment with 1α,25-dihydroxyvitamin D3 (1×10^−8 M) and a compound of the present invention (1×10^−9M and 3×10^−6 M) over the ratio of the NBT-positive cells in a single treatment with 1α,25-dihydroxyvitamin D3 (1×10^−8 M) were plotted against the treating concentration of the compounds of the present invention. […]
By IC50 is commonly meant the concentration at which inhibition is half-maximal. As for `C=C1/C(=C\C=C2/CCC[C@]3(C)[C@@H]([C@H](C)CC4CC(C)(O)C(=O)N4CCc4ccccc4)CC[C@@H]23)C[C@@H](O)[C@H](C)[C@@H]1O` (stereo partly drawn) [Compound No. 11a, 2α-methyl-1α,25-dihydroxyvitamin D3-26,23-lactam-N-(2-phenethyl)], the IC50 amounted to 16 nM. Turning to `C=C1/C(=C\C=C2/CCC[C@]3(C)[C@@H]([C@H](C)C[C@H]4C[C@](C)(O)C(=O)N4CCc4ccccc4)CC[C@@H]23)C[C@@H](O)[C@H](CCCO)[C@@H]1O` [Compound No. 12a, 2α-(3-hydroxypropyl)-1α,25-dihydroxyvitamin D3-26,23-lactam-N-(2-phenethyl)], the half-inhibitory concentration (IC50) turned out to be 10 nM. As to `C=C1/C(=C\C=C2/CCC[C@]3(C)[C@@H]([C@H](C)C[C@H]4C[C@](C)(O)C(=O)N4CCc4ccccc4)CC[C@@H]23)C[C@@H](O)[C@H](OCCCO)[C@@H]1O` [Compound No. 13a, 2α-(3-hydroxypropoxy)-1α,25-dihydroxyvitamin D3-26,23-lactam-N-(2-phenethyl)], the IC50 amounted to 52 nM.
